Data: US20120178766A1, “FUROPYRIMIDINEDIONE DERIVATIVES AS TRPAI MODULATORS” (priority 2009, published 2012)

How the values were obtained:
rat TRPA1 = target: T1, rat TRPA1 (Rattus norvegicus, UniProt Q6RI86); experiment: 45Calcium uptake assay: inhibition of AITC induced cellular uptake of radioactive calcium, rat TRPA1 expressing CHO cells; format: cell-based; details: AITC 10 μM; for inhibition at 10 µM: 10.0 μM compound, read-out: rat TRPA1 Percentage inhibition at 10.0 μM; for inhibition at 1 µM: read-out: rat TRPA1 Percentage inhibition; for IC50: class symbols
T1 construct: expressed in transfected cells; host or cells: CHO cells (Zeocin selection)
Protocol: (§1) Screening for TRPA1 Antagonist Using the ^45Calcium Uptake Assay:
(§2) The inhibition of TRPA1 receptor activation was measured as inhibition of allyl isothiocyanate (AITC) induced cellular uptake of radioactive calcium.
Test compounds were dissolved in 100% DMSO to prepare 10 mM stock and then diluted using plain medium with 0.1% BSA and 1.8 mM CaCl2 to get the desired concentration. The final concentration of DMSO in the reaction was 0.5% (v/v). […] Rat TRPA1 expressing CHO cells were grown in F-12 DMEM medium with 10% FBS, 1% penicillin-streptomycin solution, and 400 μg/ml of Zeocin. […] Cells were treated with the test compounds for 10 minutes followed by the addition of AITC at a final concentration of 30 μM (for human TRPA1) and/or 10 μM (for rat TRPA1) and 5 μCi/ml ^45Ca^+2 for 3 minutes. Cells were washed and lysed using a buffer containing 1% Triton X-100, 0.1% deoxycholate and 0.1% SDS. Radioactivity in the lysate was measured in a Packard TopCount after addition of liquid scintillant.
(§3) Concentration response curves were plotted as a % of maximal response obtained in the absence of test antagonist. IC50 values can be calculated from concentration response curve by nonlinear regression analysis using GraphPad PRISM software.

human TRPA1 = target: T2, human TRPA1 (Homo sapiens, UniProt O75762); experiment: 45Calcium uptake assay: inhibition of AITC induced cellular uptake of radioactive calcium, human TRPA1 expressing CHO cells; format: cell-based; details: AITC 30 μM; for inhibition at 1 µM: 1.0 μM compound, read-out: human TRPA1 Percentage inhibition at 1.0 μM; for inhibition at 10 µM: 10.0 μM compound, read-out: human TRPA1 Percentage inhibition at 10.0 μM
T2 construct: expressed in transfected cells; host or cells: CHO cells (G-418 selection)
From the text: The illustrative examples of the present invention are screened for TRPA1 activity according to a modified procedure described in (a) Tóth, A. et al. Life Sciences, 2003, 73, 487-498. (b) McNamara C, R. et al, Proc. Natl. Acad. Sci. U.S.A., 2007, 104, 13525-13530. The screening of the compounds can be carried out by other methods and procedures known to persons skilled in the art.
as §1, §2
Test compounds were dissolved in 100% DMSO to prepare 10 mM stock and then diluted using plain medium with 0.1% BSA and 1.8 mM CaCl2 to get the desired concentration. The final concentration of DMSO in the reaction was 0.5% (v/v). Human TRPA1 expressing CHO cells were grown in F-12 DMEM medium with 10% FBS, 1% penicillin-streptomycin solution, and 400 μg/ml of G-418. Rat TRPA1 expressing CHO cells were grown in F-12 DMEM medium with 10% FBS, 1% penicillin-streptomycin solution, and 400 μg/ml of Zeocin. Cells were seeded 24 h prior to the assay in 96 well plates so as to get ˜50,000 cells per well on the day of experiment. Cells were treated with the test compounds for 10 minutes followed by the addition of AITC at a final concentration of 30 μM (for human TRPA1) and/or 10 μM (for rat TRPA1) and 5 μCi/ml ^45Ca^+2 for 3 minutes. Cells were washed and lysed using a buffer containing 1% Triton X-100, 0.1% deoxycholate and 0.1% SDS. Radioactivity in the lysate was measured in a Packard TopCount after addition of liquid scintillant. (Toth et al, Life Sciences (2003) 73, 487-498; McNamara C R et al, Proceedings of the National Academy of Sciences, (2007) 104, 13525-13530).
as §3

T2 sequence (O75762 whole entry): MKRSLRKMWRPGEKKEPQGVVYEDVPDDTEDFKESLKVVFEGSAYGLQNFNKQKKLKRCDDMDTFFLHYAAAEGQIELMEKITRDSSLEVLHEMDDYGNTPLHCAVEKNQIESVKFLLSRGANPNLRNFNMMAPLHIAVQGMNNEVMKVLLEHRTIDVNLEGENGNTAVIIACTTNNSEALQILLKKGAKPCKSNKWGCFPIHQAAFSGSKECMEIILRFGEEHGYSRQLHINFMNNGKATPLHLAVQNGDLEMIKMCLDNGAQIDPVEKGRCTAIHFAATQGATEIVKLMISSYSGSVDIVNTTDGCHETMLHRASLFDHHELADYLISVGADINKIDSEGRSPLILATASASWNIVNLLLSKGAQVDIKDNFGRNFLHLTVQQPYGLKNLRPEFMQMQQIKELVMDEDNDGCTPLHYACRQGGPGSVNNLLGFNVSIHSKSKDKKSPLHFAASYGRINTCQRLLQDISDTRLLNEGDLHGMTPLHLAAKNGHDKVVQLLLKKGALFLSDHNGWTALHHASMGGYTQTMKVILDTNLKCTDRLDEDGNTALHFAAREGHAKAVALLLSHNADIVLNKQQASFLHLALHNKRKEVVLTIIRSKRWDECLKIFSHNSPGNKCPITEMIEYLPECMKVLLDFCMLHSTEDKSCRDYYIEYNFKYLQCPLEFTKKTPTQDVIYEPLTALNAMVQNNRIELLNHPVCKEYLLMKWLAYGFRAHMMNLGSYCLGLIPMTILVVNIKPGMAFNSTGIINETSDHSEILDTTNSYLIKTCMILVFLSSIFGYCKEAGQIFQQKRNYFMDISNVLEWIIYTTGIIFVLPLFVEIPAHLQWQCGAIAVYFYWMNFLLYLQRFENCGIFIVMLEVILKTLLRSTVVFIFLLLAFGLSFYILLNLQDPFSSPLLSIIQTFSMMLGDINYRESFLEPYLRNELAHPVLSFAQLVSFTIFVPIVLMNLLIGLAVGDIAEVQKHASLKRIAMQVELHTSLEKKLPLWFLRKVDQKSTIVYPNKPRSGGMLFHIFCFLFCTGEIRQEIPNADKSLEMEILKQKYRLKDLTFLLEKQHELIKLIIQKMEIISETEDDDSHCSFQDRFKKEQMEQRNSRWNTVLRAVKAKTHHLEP
T1 sequence (Q6RI86 whole entry): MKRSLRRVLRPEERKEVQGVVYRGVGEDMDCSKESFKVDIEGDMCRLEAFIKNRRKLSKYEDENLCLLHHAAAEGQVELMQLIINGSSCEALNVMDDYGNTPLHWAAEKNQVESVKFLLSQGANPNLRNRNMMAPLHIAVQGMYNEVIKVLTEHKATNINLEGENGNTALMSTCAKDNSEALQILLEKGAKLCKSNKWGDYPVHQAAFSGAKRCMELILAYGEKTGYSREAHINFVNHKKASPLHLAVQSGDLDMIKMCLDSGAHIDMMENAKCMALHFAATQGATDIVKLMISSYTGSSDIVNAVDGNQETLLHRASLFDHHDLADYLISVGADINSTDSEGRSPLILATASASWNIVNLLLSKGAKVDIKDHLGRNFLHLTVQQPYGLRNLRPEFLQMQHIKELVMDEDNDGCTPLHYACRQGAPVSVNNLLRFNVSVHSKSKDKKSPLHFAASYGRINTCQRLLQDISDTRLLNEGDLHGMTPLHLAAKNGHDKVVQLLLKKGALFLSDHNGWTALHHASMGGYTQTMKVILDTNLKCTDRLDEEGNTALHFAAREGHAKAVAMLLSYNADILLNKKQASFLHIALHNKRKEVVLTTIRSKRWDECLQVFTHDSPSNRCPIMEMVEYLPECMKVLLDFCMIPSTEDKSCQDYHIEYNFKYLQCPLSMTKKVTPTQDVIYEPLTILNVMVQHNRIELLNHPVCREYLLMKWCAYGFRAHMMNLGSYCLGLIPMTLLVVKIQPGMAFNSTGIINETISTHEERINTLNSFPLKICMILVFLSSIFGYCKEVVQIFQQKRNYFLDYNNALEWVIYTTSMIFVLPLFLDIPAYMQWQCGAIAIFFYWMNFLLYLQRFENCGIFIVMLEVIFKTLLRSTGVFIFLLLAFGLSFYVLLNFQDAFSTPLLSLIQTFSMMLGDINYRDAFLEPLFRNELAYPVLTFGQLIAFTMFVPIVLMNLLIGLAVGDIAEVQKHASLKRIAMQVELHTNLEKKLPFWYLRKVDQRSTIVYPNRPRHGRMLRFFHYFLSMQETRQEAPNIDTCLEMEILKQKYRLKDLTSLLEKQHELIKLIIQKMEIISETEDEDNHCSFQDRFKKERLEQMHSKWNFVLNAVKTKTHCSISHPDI

inhibition at 10 µM (rat TRPA1) [%] | inhibition at 1 µM (rat TRPA1) [%] | IC50 (human TRPA1; numeric values) [nM] | inhibition at 1 µM (human TRPA1) [%] | inhibition at 10 µM (human TRPA1) [%] | IC50 (human TRPA1; class symbols) [nM] | IC50 (rat TRPA1) [nM] | SMILES
98.5 | 99.2 | 19.2 | – | – | – | – | Cc1oc2c(c1CC(=O)Nc1nc(-c3ccc(F)c(F)c3F)cs1)c(=O)n(C)c(=O)n2C [Example 77, N1-[4-(2,3,4-Trifluorophenyl)-1,3-thiazol-2-yl]-2-(1,3,6-trimethyl-2,4-dioxo-1,2,3,4-tetrahydrofuro[2,3-d]pyrimidin-5-yl)acetamide]
– | – | – | 99.3 | 100 | < 50 | – | Cn1c(=O)c2c(CC(=O)Nc3nc(-c4cccc(OC(F)(F)F)c4)cs3)coc2n(C)c1=O [Example 9, N1-[4-(3-Trifluorormethoxyphenyl)-1,3-thiazol-2-yl]-2-(1,3-dimethyl-2,4-dioxo-1,2,3,4-tetrahydrofuro[2,3-d]pyrimidin-5-yl)acetamide]
– | – | – | 98.5 | 99.4 | < 50 | > 100 | Cn1c(=O)c2c(CC(=O)Nc3nc(-c4ccc(Cl)c(Cl)c4)cs3)coc2n(C)c1=O [Example 13, N1-[4-(3,4-Dichlorophenyl)-1,3-thiazol-2-yl]-2-(1,3-dimethyl-2,4-dioxo-1,2,3,4-tetrahydrofuro[2,3-d]pyrimidin-5-yl)acetamide]
– | – | – | – | – | < 50 | < 50 | Cc1oc2c(c1CC(=O)Nc1nc(-c3ccc(OC(F)(F)F)c(F)c3)cs1)c(=O)n(C)c(=O)n2C [Example 67, N1-{4-[3-Fluoro-4-(trifluoromethoxy)phenyl]-1,3-thiazol-2-yl}-2-(1,3,6-trimethyl-2,4-dioxo-1,2,3,4-tetrahydrofuro[2,3-d]pyrimidin-5-yl)acetamide]
– | – | – | – | – | < 50 | < 50 | Cc1oc2c(c1CC(=O)Nc1nc(-c3cc(F)cc(C(F)(F)F)c3)cs1)c(=O)n(C)c(=O)n2C [Example 62, N1-{4-[3-Fluoro-5-(trifluoromethyl)phenyl]-1,3-thiazol-2-yl}-2-(1,3,6-trimethyl-2,4-dioxo-1,2,3,4-tetrahydrofuro[2,3-d]pyrimidin-5-yl)acetamide]
100 | 97.5 | – | 98.5 | 97.7 | < 50 | 50 to 100 | Cn1c(=O)c2c(CC(=O)Nc3nc(-c4ccc(F)c(Br)c4)cs3)coc2n(C)c1=O [Example 10, N1-[4-(3-Bromo-4-fluorophenyl)-1,3-thiazol-2-yl]-2-(1,3-dimethyl-2,4-dioxo-1,2,3,4-tetrahydrofuro[2,3-d]pyrimidin-5-yl)acetamide]
– | – | – | 17.7 | 28.4 | – | – | Cn1c(=O)c2c(CC(=O)NCCc3ccc(Cl)cc3Cl)coc2n(C)c1=O [Example 2, N1-[2-(2,4-Dichlorophenyl)ethyl]-2-(1,3-dimethyl-2,4-dioxo-1,2,3,4-tetrahydrofuro[2,3-d]pyrimidin-5-yl)acetamide]
– | – | – | 97.9 | 98.4 | > 100 | – | Cn1c(=O)c2c(CC(=O)Nc3nc(-c4ccc(F)cc4F)cs3)coc2n(C)c1=O [Example 12, N1-[4-(2,4-Difluorophenyl)-1,3-thiazol-2-yl]-2-(1,3-dimethyl-2,4-dioxo-1,2,3,4-tetrahydrofuro[2,3-d]pyrimidin-5-yl)acetamide]
– | – | – | 97.9 | 98.1 | < 50 | – | Cn1c(=O)c2c(CC(=O)Nc3nc(-c4cc(F)c(F)cc4F)cs3)coc2n(C)c1=O [Example 33, N1-[4-(2,4,5,-Trifluorophenyl)-1,3-thiazol-2-yl]-2-(1,3-dimethyl-2,4-dioxo-1,2,3,4-tetrahydrofuro[2,3-d]pyrimidin-5-yl)acetamide]
– | – | – | 98.8 | 99.4 | 50 to 100 | – | Cn1c(=O)c2c(CC(=O)Nc3nc(-c4ccc(F)c(F)c4)cs3)coc2n(C)c1=O [Example 11, N1-[4-(3,4-Difluorophenyl)-1,3-thiazol-2-yl]-2-(1,3-dimethyl-2,4-dioxo-1,2,3,4-tetrahydrofuro[2,3-d]pyrimidin-5-yl)acetamide]
– | – | – | 14.5 | 57.3 | – | – | Cn1c(=O)c2c(CC(=O)Nc3nc4c(F)cc(F)cc4s3)coc2n(C)c1=O [Example 4, N-(4,6-Difluoro-1,3-benzothiazol-2-yl)-2-(1,3-dimethyl-2,4-dioxo-1,2,3,4-tetrahydrofuro[2,3-d]pyrimidin-5-yl)acetamide]
– | – | – | 100 | 99.6 | < 50 | – | Cn1c(=O)c2c(CC(=O)Nc3nc(-c4ccc(C(F)(F)F)cc4)cs3)coc2n(C)c1=O [Example 6, N1-{4-[4-(Trifluoromethyl)phenyl]-1,3-thiazol-2-yl}-2-(1,3-dimethyl-2,4-dioxo-1,2,3,4-tetrahydrofuro[2,3-d]pyrimidin-5-yl)acetamide]
– | – | – | 27 | 99.8 | – | – | CC(C)Cc1ccc(-c2csc(NC(=O)Cc3coc4c3c(=O)n(C)c(=O)n4C)n2)cc1 [Example 5, N1-[4-(4-Isobutylphenyl)-1,3-thiazol-2-yl]-2-(1,3-dimethyl-2,4-dioxo-1,2,3,4-tetrahydrofuro[2,3-d]pyrimidin-5-yl)acetamide]
– | – | 247 | – | – | – | – | Cc1oc2c(c1CC(=O)Nc1nc(-c3cc(F)c(Cl)cc3Cl)cs1)c(=O)n(C)c(=O)n2C [Example 79, N1-[4-(2,4-Dichloro-5-fluorophenyl)-1,3-thiazol-2-yl]-2-(1,3,6-trimethyl-2,4-dioxo-1,2,3,4-tetrahydrofuro[2,3-d]pyrimidin-5-yl)acetamide]
– | – | – | 6.44 | 45.8 | – | – | Cn1c(=O)c2c(CC(=O)Nc3nc(C(F)(F)F)cs3)coc2n(C)c1=O [Example 3, N1-[4-(Trifluoromethyl)-1,3-thiazol-2-yl]-2-(1,3-Dimethyl-2,4-dioxo-1,2,3,4-tetrahydrofuro[2,3-d]pyrimidin-5-yl)acetamide]
– | – | – | 99.3 | 99.8 | < 50 | – | Cn1c(=O)c2c(CC(=O)Nc3nc(-c4ccc(OC(F)F)c(Br)c4)cs3)coc2n(C)c1=O [Example 25, N1-[4-(3-Bromo-4-difluoromethoxyphenyl)-1,3-thiazol-2-yl]-2-(1,3-dimethyl-2,4-dioxo-1,2,3,4-tetrahydrofuro[2,3-d]pyrimidin-5-yl)acetamide]
– | – | – | 98.8 | 99.8 | < 50 | – | Cn1c(=O)c2c(CC(=O)Nc3nc(-c4cccc(C(F)(F)F)c4)cs3)coc2n(C)c1=O [Example 7, N1-{4-[3-(Trifluoromethyl)phenyl]-1,3-thiazol-2-yl}-2-(1,3-dimethyl-2,4-dioxo-1,2,3,4-tetrahydrofuro[2,3-d]pyrimidin-5-yl)acetamide]

SMILES | inhibition at 10 µM (rat TRPA1) [%] | inhibition at 1 µM (rat TRPA1) [%] | IC50 (human TRPA1; numeric values) [nM] | inhibition at 1 µM (human TRPA1) [%] | inhibition at 10 µM (human TRPA1) [%] | IC50 (human TRPA1; class symbols) [nM] | IC50 (rat TRPA1) [nM]
CC(C)CCOc1c(F)cc(-c2csc(NC(=O)Cc3coc4c3c(=O)n(C)c(=O)n4C)n2)cc1F [Example 45, N1-{4-[3,5-Difluoro-4-(3-methylbutoxy)phenyl]-1,3-thiazol-2-yl}-2-(1,3-dimethyl-2,4-dioxo-1,2,3,4-tetrahydrofuro[2,3-d]pyrimidin-5-yl)acetamide] | – | – | – | 90.7 | 98.1 | < 50 | –
CC(C)COc1ccc(-c2csc(NC(=O)Cc3coc4c3c(=O)n(C)c(=O)n4C)n2)cc1Br [Example 29, N1-[4-(3-Bromo-4-isobutoxyphenyl)-1,3-thiazol-2-yl]-2-(1,3-dimethyl-2,4-dioxo-1,2,3,4-tetrahydrofuro[2,3-d]pyrimidin-5-yl)acetamide] | – | – | – | 98.6 | 99.8 | > 100 | –
